Data as given in ChEMBL document CHEMBL2203027, “Lanostanoids from fungi: a group of potential anticancer compounds” (J Nat Prod, 2012).
pIC50: −log10 of the molar value. Values after ≈ are worked out from the molar mass of the structure shown.

How the values were obtained:
[1] = Cytotoxicity against human 95-D cells; type: functional, cell-based
HeLa = assay: Cytotoxicity against human HeLa cells; type: functional, cell-based; settings: Homo sapiens, HeLa
DNA topoisomerase 1 [2] = molecular target: T1, DNA topoisomerase 1 (Homo sapiens, UniProt P11387); assay: Inhibition of topoisomerase 1 in human HuH7 cells; type: cell-based, Huh-7
[3] = molecular target: T2, DNA topoisomerase 2-alpha (Homo sapiens, UniProt P11388); assay: Inhibition of topoisomerase 2a in human HuH7 cells; type: cell-based, Huh-7
Mus musculus = species on record: Mus musculus; assay: Inhibition of TPA-induced tumor progression in mouse skin at 0.2 umol measured at week 20; type: functional
A549 = assay: Cytotoxicity against human A549 cells; type: functional, cell-based
[4] = Inhibition of rat microsomal 5-alpha reductase assessed as inhibition of conversion of [4-14C]testosterone to [4-14C] dihydrotestosterone after 10 mins
[5] = test system: Lewis lung carcinoma cell line; assay: Antitumor activity against mouse LLC cells allografted in mouse assessed as reduction in tumor size at 5 mg/kg, ip qd for 2 weeks measured on day 14 relative to control; type: functional; settings: route intraperitoneal
[6] = test system: Lewis lung carcinoma cell line; assay: Antitumor activity against mouse LLC cells allografted in mouse assessed as reduction in tumor size at 10 mg/kg, ip qd for 2 weeks measured on day 14 relative to control; type: functional; settings: route intraperitoneal
[7] = test system: Lewis lung carcinoma cell line; assay: Antitumor activity against mouse LLC cells allografted in mouse assessed as reduction in tumor size at 2 mg/kg, ip qd for 2 weeks measured on day 20 relative to control; type: functional; settings: route intraperitoneal
[8] = test system: Lewis lung carcinoma cell line; assay: Antitumor activity against mouse LLC cells allografted in mouse assessed as reduction in tumor size at 2 mg/kg, ip qd for 2 weeks measured on day 14 relative to control; type: functional; settings: route intraperitoneal
[9] = test system: Lewis lung carcinoma cell line; assay: Antitumor activity against mouse LLC cells allografted in mouse assessed as reduction in tumor size at 20 mg/kg, ip qd for 2 weeks measured on day 20 relative to control; type: functional; settings: route intraperitoneal
[10] = test system: Lewis lung carcinoma cell line; assay: Antitumor activity against mouse LLC cells allografted in mouse assessed as reduction in tumor size at 10 mg/kg, ip qd for 2 weeks measured on day 20 relative to control; type: functional; settings: route intraperitoneal
[11] = test system: Lewis lung carcinoma cell line; assay: Antitumor activity against mouse LLC cells allografted in mouse assessed as reduction in tumor size at 5 mg/kg, ip qd for 2 weeks measured on day 20 relative to control; type: functional; settings: route intraperitoneal
[12] = test system: Lewis lung carcinoma cell line; assay: Antitumor activity against mouse LLC cells allografted in mouse assessed as reduction in tumor size at 20 mg/kg, ip qd for 2 weeks measured on day 14 relative to control; type: functional; settings: route intraperitoneal
Huh-7 = assay: Cytotoxicity against human HuH7 cells; type: functional, cell-based
[13] = Cytotoxicity against human Hep3B cells; type: functional, cell-based, Hep 3B2
K562 = assay: Cytotoxicity against human K562 cells; type: functional, cell-based
HepG2 = assay: Cytotoxicity against human HepG2 cells; type: functional, cell-based
[14] = Cytotoxicity against mouse Meth-A cells; type: functional, cell-based
DNA topoisomerase 1 [15] = molecular target: T1, DNA topoisomerase 1; assay: Inhibition of topoisomerase 1
[16] = molecular target: T2, DNA topoisomerase 2-alpha; assay: Inhibition of topoisomerase 2
[17] = Cytotoxicity against mouse LLC cells; type: functional, cell-based; settings: Lewis lung carcinoma
T47D = assay: Cytotoxicity against human T47D cells; type: functional, cell-based
CCRF S-180 = assay: Cytotoxicity against mouse S180 cells; type: functional, cell-based
[18] = test system: Lewis lung carcinoma cell line; assay: Antitumor activity against mouse LLC cells allografted in C57B/6 mouse assessed as inhibition of tumor metastasis at 28 mg/kg relative to control; type: functional; design: scale not given: the % may be the effect or the level left
[19] = test system: Lewis lung carcinoma cell line; assay: Antitumor activity against mouse LLC cells allografted in C57B/6 mouse assessed as tumor growth inhibition at 28 mg/kg relative to control; type: functional; settings: read-out: TGI
DU-145 = assay: Cytotoxicity against human DU145 cells; type: functional, cell-based
SGC-7901 = assay: Cytotoxicity against human SGC7901 cells; type: functional, cell-based
P388 [20] = assay: Cytotoxicity against mouse P388 cells; type: functional, cell-based
Bel-7402 = assay: Cytotoxicity against human Bel7402 cells; type: functional, cell-based
NUGC-3 = assay: Cytotoxicity against human NUGC3 cells; type: functional, cell-based
[21] = Growth inhibition of H-Ras transformed rat Rat2 cells; type: functional
J82 = assay: Growth inhibition of H-Ras expressing human J82 cells; type: functional
L1210 = assay: Cytotoxicity against mouse L1210 cells; type: functional, cell-based
COLO 205 = assay: Cytotoxicity against human COLO205 cells; type: functional, cell-based
P388 [22] = assay: Antitumor activity against mouse P388 cells allografted in CDF1 mouse assessed as increase in survival rate at 10 mg/kg; type: functional
P388 [23] = assay: Antiproliferative activity against mouse P388 cells; type: functional, cell-based
P388 [24] = assay: Antitumor activity against mouse P388 cells allografted in CDF1 mouse assessed as increase in survival rate at 3 mg/kg; type: functional
HL-60 = assay: Cytotoxicity against human HL60 cells; type: functional, cell-based

T2 sequence (P11388 whole entry): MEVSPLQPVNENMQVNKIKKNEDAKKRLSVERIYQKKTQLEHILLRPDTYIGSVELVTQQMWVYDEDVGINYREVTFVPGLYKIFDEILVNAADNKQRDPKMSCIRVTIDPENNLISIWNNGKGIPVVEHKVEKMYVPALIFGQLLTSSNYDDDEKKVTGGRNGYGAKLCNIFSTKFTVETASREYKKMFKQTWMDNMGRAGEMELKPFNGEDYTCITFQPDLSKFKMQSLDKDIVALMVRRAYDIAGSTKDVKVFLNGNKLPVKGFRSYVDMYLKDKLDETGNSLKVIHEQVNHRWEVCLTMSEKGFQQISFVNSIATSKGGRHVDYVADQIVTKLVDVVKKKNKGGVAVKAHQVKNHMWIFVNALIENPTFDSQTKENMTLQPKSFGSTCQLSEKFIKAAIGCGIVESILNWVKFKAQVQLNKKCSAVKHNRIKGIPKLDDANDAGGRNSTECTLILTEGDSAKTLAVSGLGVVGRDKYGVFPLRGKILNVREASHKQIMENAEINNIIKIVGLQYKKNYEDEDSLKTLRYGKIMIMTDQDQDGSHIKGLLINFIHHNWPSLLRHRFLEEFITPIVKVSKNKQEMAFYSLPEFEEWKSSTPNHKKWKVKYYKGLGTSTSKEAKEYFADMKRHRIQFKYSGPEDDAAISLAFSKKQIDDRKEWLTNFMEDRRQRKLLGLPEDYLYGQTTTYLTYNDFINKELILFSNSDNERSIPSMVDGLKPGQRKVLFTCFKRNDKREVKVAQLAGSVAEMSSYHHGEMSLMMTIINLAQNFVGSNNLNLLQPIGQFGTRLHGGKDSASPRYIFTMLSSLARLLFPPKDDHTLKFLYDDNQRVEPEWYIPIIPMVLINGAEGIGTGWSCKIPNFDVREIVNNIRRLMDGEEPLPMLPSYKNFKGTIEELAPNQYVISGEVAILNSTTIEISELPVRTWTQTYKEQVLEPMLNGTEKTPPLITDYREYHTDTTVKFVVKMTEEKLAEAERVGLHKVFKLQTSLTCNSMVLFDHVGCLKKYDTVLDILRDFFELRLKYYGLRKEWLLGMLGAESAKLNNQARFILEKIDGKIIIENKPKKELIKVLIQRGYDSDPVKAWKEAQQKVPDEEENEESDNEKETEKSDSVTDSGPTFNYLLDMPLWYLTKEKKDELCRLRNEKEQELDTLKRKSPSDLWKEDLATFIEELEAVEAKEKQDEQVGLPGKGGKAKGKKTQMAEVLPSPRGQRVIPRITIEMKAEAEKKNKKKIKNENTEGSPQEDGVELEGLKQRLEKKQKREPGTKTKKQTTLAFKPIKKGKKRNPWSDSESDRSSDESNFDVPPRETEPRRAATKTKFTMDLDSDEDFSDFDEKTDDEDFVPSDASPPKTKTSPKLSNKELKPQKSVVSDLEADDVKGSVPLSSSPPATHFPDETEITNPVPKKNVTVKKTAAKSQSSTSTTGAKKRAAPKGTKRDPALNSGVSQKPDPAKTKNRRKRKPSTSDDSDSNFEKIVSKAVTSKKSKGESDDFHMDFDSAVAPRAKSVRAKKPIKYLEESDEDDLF
T1 sequence (P11387 whole entry): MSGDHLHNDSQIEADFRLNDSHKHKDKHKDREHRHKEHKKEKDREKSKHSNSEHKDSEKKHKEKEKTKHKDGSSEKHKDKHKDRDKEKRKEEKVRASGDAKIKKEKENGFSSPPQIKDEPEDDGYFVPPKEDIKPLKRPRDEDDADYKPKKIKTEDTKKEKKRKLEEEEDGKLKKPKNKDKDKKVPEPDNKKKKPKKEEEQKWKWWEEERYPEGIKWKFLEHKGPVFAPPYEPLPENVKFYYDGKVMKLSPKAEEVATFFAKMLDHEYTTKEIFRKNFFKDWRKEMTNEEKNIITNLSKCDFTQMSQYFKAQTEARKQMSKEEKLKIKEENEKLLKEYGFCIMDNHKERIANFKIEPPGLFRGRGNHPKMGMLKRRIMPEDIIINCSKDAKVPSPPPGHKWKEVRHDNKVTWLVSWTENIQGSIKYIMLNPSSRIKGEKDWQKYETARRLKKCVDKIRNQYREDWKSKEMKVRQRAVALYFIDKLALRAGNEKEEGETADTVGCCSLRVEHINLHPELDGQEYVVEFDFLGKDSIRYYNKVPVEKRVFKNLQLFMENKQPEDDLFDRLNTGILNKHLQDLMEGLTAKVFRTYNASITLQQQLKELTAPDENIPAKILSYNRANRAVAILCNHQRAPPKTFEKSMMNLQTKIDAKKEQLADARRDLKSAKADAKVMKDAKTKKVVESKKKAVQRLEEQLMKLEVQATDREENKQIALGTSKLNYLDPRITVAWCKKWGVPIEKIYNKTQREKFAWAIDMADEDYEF

`CC[C@@]1(O)C(=O)OCc2c1cc1n(c2=O)Cc2cc3cc(O)ccc3nc2-1` [HYDROXYCAMPTOTHECIN] showed a pIC50 [1] of 4.67 and a pIC50 (HeLa) of 4.53.
With `CC(=O)O[C@H]1C[C@H]([C@H](C)CC/C=C(\C)C(=O)O)[C@@]2(C)CC=C3C(=CC[C@H]4C(C)(C)[C@@H](O)CC[C@]34C)[C@]12C` [GANODERIC ACID X] the pIC50 (DNA topoisomerase 1 [2]) was 4.26 and the pIC50 [3] was 4.60.
In the case of `C=C(CC[C@@H](C(=O)O)[C@H]1[C@H](O)C[C@@]2(C)C3=CC[C@H]4C(C)(C)C(=O)CC[C@]4(C)C3=CC[C@]12C)C(C)C` [POLYPORENIC ACID B], the “inhibition (INH)” value (Mus musculus) was 83% and the pIC50 (A549) was 4.70.
With `C/C(=C\CC[C@@H](C)[C@H]1C[C@H](O)[C@@]2(C)C3=CC[C@H]4C(C)(C)C(=O)CC[C@]4(C)C3=CC[C@]12C)CO` the pIC50 (HeLa) was 6.00 and the pIC50 [4] was 4.38.
`C[C@H](CCC=C(CO)CO)[C@H]1CC[C@@]2(C)C3=CC[C@H]4C(C)(C)C(=O)CC[C@]4(C)C3=CC[C@]12C` [GANODERIOL F] gave a T/C [5] of 64%, a T/C [6] of 54% and a pIC50 (HeLa) of 5.30. For the same compound, the T/C [7] was 45%, the T/C [8] was 38% and the T/C [9] was 54%. The T/C [10] was 63%, the T/C [11] was 79% and the T/C [12] was 48%. The pIC50 (Huh-7) was 5.07, the pIC50 [13] was 4.60 and the pIC50 (K562) was 5.40. It also gave a pIC50 (HepG2) of 4.77, an IC50 [14] of 10.1 µg/mL (≈ 22.2 µM) and a pIC50 (DNA topoisomerase 1 [15]) of 3.97. For the same compound, the pIC50 [16] was 4.77, the IC50 [17] was 2 µg/mL (≈ 4.4 µM) and the IC50 (T47D) was 3 µg/mL (≈ 6.6 µM). The IC50 (CCRF S-180) was 7.1 µg/mL (≈ 15.6 µM).
Work on `CC(=O)O[C@@H](C/C=C(\C)C(=O)O)[C@@H](C)[C@H]1C[C@H](OC(C)=O)[C@@]2(C)C3=CC[C@H]4C(C)(C)[C@H](OC(C)=O)CC[C@]4(C)C3=CC[C@]12C` [GANODERIC ACID T] yielded an Activity [18] of 78% and an inhibition in vivo at 28 mg/kg [19] of 63%.
Compound `C=C(CC[C@@H](C(=O)O)[C@H]1[C@H](O)C[C@@]2(C)C3=CC[C@H]4C(C)(CO)C(=O)CC[C@]4(C)C3=CC[C@]12C)C(C)C` (some centres not stated) has a pIC50 (DU-145) of 4.30.
`COc1cc([C@@H]2c3cc4c(cc3[C@@H](O[C@@H]3O[C@@H]5CO[C@@H](C)O[C@H]5[C@H](O)[C@H]3O)[C@H]3COC(=O)[C@H]23)OCO4)cc(OC)c1O` [ETOPOSIDE] gave a pIC50 (SGC-7901) of 7.10, a pIC50 (P388 [20]) of 7.10 and a pIC50 (Bel-7402) of 7.10. It also gave a pIC50 (HeLa) of 7.10.
In the case of `CC(C)=CCCC(C(=O)O)[C@H]1CC[C@@]2(C)C3=CC[C@H]4C(C)(C)C(=O)CC[C@]4(C)C3=CC[C@]12C` (some centres not stated) [DEHYDROTRAMETENONIC ACID], the pIC50 (NUGC-3) was 4.20 and the pIC50 [16] was 4.43.
Work on `C=C(CCC(C(=O)O)[C@H]1CC[C@@]2(C)C3=CC[C@H]4C(C)(C)C(=O)CC[C@]4(C)C3=CC[C@]12C)C(C)C` (some centres not stated) [DEHYDROEBURICONIC ACID] yielded a pIC50 (NUGC-3) of 4.42 and a pIC50 [16] of 5.34.
In the case of `CC(C)=CCC[C@@H](C(=O)O)[C@H]1CC[C@@]2(C)C3=CC[C@H]4C(C)(C)[C@@H](O)CC[C@]4(C)C3=CC[C@]12C` [DEHYDROTRAMETENOLIC ACID], the GI50 [21] was 39.2 µM and the GI50 (J82) was 26.7 µM.
In the case of `C/C(=C/CC[C@@H](C)[C@H]1C[C@H](O)[C@@]2(C)C3=CC[C@H]4C(C)(C)C(=O)CC[C@]4(C)C3=CC[C@]12C)C(=O)O` [GANODERIC ACID TR], the pIC50 [4] was 5.07.
In the case of `CC(C)=CC[C@@H](O)[C@@H](C)[C@H]1CC[C@@]2(C)C3=C(CC[C@]12C)[C@@]1(C)CC[C@H](O)C(C)(C)[C@@H]1CC3` [INOTODIOL], the pIC50 (L1210) was 3.96, the pIC50 (COLO 205) was 3.77 and the survival at 10 mg/kg (P388 [22]) was 20.8%. The pIC50 (P388 [23]) was 4.86, the survival at 3 mg/kg (P388 [24]) was 9.7% and the pIC50 (HL-60) was 4.60.
Work on `C/C(=C/CC[C@@H](C)[C@H]1CC[C@@]2(C)C3=C(CC[C@]12C)[C@@]1(C)CCC(=O)C(C)(C)[C@@H]1CC3=O)C(=O)O` [GANODERIC ACID DM] yielded a pIC50 (HeLa) of 4.00 and a pIC50 [4] of 4.97.
In the case of `CCO[C@@H]1C[C@H]2C(C)(C)[C@H](OC(C)=O)CC[C@]2(C)C2=C1[C@]1(C)[C@@H](OC(C)=O)C[C@H]([C@H](C)C(C/C=C(\C)C(=O)O)OC(C)=O)[C@@]1(C)CC2` (some centres not stated), the pIC50 [1] was 4.33 and the pIC50 (HeLa) was 4.23.
For `C=C(CC[C@@H](C(=O)O)[C@H]1[C@H](O)C[C@@]2(C)C3=CC[C@H]4C(C)(C)[C@H](OC(C)=O)CC[C@]4(C)C3=CC[C@]12C)C(C)C`, the “inhibition (INH)” value (Mus musculus) was 92%.
